Test results from the supplement of paper PMC11061612.

Key:
Test in all cases: Bliss excess, mean over the matrix (fraction); higher = more synergy
[1] = tested on: EMC-BAC-2 (Non-Small Cell Lung Carcinoma)
Method in brief: (§1)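 Cell lines grown in DMEM/F12 or RPMI with 10% FBS were plated in 1536-well plates and held 24 hours at 37°C, 5% CO2 before 72 hours of exposure to two-drug dose matrices, with DMSO typically at 0.2%. CellTiter-Glo 2.0 luminescence gave viability, which was converted to inhibition. Vehicle wells were set to 0 and blank wells to 1. Combination Emax is the second-highest inhibition in the matrix, and Bliss excess is the observed combination effect minus the expected EA + EB − EA·EB, where EA and EB are the single-agent effects.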

[2] = tested on: NCI-H2347 (Lung Adenocarcinoma)
Method in brief: as §1

RPMI-7951 (Melanoma) = tested on: RPMI-7951 (Melanoma)
Method in brief: as §1

[3] = tested on: SNU-C1 (Colorectal Carcinoma)
Method in brief: as §1

A704 (Kidney Carcinoma) = tested on: A704 (Kidney Carcinoma)
Method in brief: as §1

IMR-5 (Neuroblastoma) = tested on: IMR-5 (Neuroblastoma)
Method in brief: as §1

EW-18 (Ewing's Sarcoma) = tested on: EW-18 (Ewing's Sarcoma)
Method in brief: as §1

[4] = tested on: NCI-H322M (Lung Adenocarcinoma)
Method in brief: as §1

[5] = tested on: TGBC11TKB (Gastric Carcinoma)
Method in brief: as §1

NH-12 (Neuroblastoma) = tested on: NH-12 (Neuroblastoma)
Method in brief: as §1

[6] = tested on: OCUB-M (Breast Carcinoma)
Method in brief: as §1

[7] = tested on: DG-75 (Burkitt's Lymphoma)
Method in brief: as §1

[8] = tested on: NCI-H513 (Other Solid Carcinomas)
Method in brief: as §1

[9] = tested on: HuP-T3 (Pancreatic Carcinoma)
Method in brief: as §1

BT-20 (Breast Carcinoma) = tested on: BT-20 (Breast Carcinoma)
Method in brief: as §1

U-87-MG (Glioblastoma) = tested on: U-87-MG (Glioblastoma)
Method in brief: as §1

[10] = tested on: KYSE-150 (Esophageal Squamous Cell Carcinoma)
Method in brief: as §1

[11] = tested on: SCC-9 (Oral Cavity Carcinoma)
Method in brief: as §1

[12] = tested on: NCI-H2405 (Lung Adenocarcinoma)
Method in brief: as §1

[13] = tested on: HSC-2 (Oral Cavity Carcinoma)
Method in brief: as §1

| SMILES | Bliss excess [1] | Bliss excess [2] | Bliss excess (RPMI-7951 (Melanoma)) | Bliss excess [3] | Bliss excess (A704 (Kidney Carcinoma)) | Bliss excess (IMR-5 (Neuroblastoma)) | Bliss excess (EW-18 (Ewing's Sarcoma)) | Bliss excess [4] | Bliss excess [5] | Bliss excess (NH-12 (Neuroblastoma)) | Bliss excess [6] | Bliss excess [7] | Bliss excess [8] | Bliss excess [9] | Bliss excess (BT-20 (Breast Carcinoma)) | Bliss excess (U-87-MG (Glioblastoma)) | Bliss excess [10] | Bliss excess [11] | Bliss excess [12] | Bliss excess [13] |
| --- | --- | --- | --- | --- | --- | --- | --- | --- | --- | --- | --- | --- | --- | --- | --- | --- | --- | --- | --- | --- |
| CN(C)CCCOc1ccc(-c2ccc3ncc4c(c3c2)n(C2CCOCC2)c(=O)n4C)cn1 [AZD0156] + O=C(c1cc(Cc2n[nH]c(=O)c3ccccc23)ccc1F)N1CCN(C(=O)C2CC2)CC1 [Olaparib] (first compound max 3 µM, partner max 3 µM) | 0.147 | -0.0089 | 0.0588 | -0.0049 | 0.026 | 0.0884 | 0.172 | 0.0142 | -0.0984 | -0.0131 | -0.0091 | 0.0614 | -0.0347 | -0.0247 | 0.0209 | 0.0207 | 0.116 | 0.0741 | -0.0471 | 0.156 |
| Cc1c2c(nn1C)CSCc1cc(n(C)n1)CSc1cc(c3ccccc3c1)OCCCc1c(C(=O)O)n(C)c3c-2c(Cl)ccc13 [AZD5991] + CC1(C)CCC(CN2CCN(c3ccc(C(=O)NS(=O)(=O)c4ccc(NCC5CCOCC5)c([N+](=O)[O-])c4)c(Oc4cnc5[nH]ccc5c4)c3)CC2)=C(c2ccc(Cl)cc2)C1 [Venetoclax] (first compound max 1 µM, 7x7, partner max 1 µM) | -0.0512 | -0.0188 | -0.0568 | -0.0458 | -0.0306 | 0.0656 | 0.046 | -0.0378 | 0.0364 | 0.139 | 0.006 | -0.0246 | -0.0072 | -0.0358 | 0.0755 | -0.0877 | -0.0324 | -0.0278 | -0.0346 | 0.0693 |
| CN(CCO)CC[C@H](CSc1ccccc1)Nc1ccc(S(=O)(=O)NC(=O)c2ccc(N3CCC([C@@H](O)c4ccccc4-c4ccc(Cl)cc4)CC3)cc2)cc1S(=O)(=O)C(F)(F)F [AZD4320] + C1CN(CCC1(C(=O)N[C@@H](CCO)C2=CC=C(C=C2)Cl)N)C3=NC=NC4=C3C=CN4 [Capivasertib] (first compound max 1 µM, 7x7, partner max 3 µM) | -0.0761 | -0.0533 | 0.0055 | -0.0886 | -0.1 | 0.154 | -0.0124 | -0.0402 | -0.0398 | -0.0589 | -0.0174 | -0.0093 | -0.0501 | -0.0678 | 0.0427 | -0.045 | -0.0579 | -0.0761 | -0.0513 | -0.0379 |
| COc1nnc2ccc(N3CCC(c4ccc(OCCN5CCN(C)C(=O)[C@H]5C)cc4)CC3)nn12 [AZD5153] + Cc1c2c(nn1C)CSCc1cc(n(C)n1)CSc1cc(c3ccccc3c1)OCCCc1c(C(=O)O)n(C)c3c-2c(Cl)ccc13 [AZD5991] (first compound max 1 µM, 7x7, partner max 1 µM) | -0.0589 | -0.0198 | -0.0575 | -0.0376 | -0.0297 | -0.0178 | 0.0235 | -0.0517 | -0.0666 | -0.0206 | 0.0063 | -0.0432 | -0.0287 | 0.0051 | 0.0213 | 0.0336 | -0.0732 | -0.0322 | 0.01 | -0.0731 |
| COc1nnc2ccc(N3CCC(c4ccc(OCCN5CCN(C)C(=O)[C@H]5C)cc4)CC3)nn12 [AZD5153] + CCN(CCO)CCCOc1ccc2c(Nc3cc(CC(=O)Nc4cccc(F)c4)[nH]n3)ncnc2c1 [AZD2811] (first compound max 1 µM, 7x7, partner max 1 µM) | -0.0242 | -0.0549 | -0.0243 | -0.0694 | 0.0278 | -0.0151 | -0.0273 | -0.0612 | -0.0962 | -0.121 | -0.133 | 0.0144 | -0.108 | -0.0306 | -0.0105 | 0.0005 | -0.0134 | -0.0476 | -0.0102 | -0.0106 |
| CC(=O)c1c(C)c2cnc(Nc3ccc(N4CCNCC4)cn3)nc2n(C2CCCC2)c1=O [Palbociclib] + Cc1c2c(nn1C)CSCc1cc(n(C)n1)CSc1cc(c3ccccc3c1)OCCCc1c(C(=O)O)n(C)c3c-2c(Cl)ccc13 [AZD5991] (first compound max 10 µM, 7x7, partner max 1 µM) | -0.0991 | -0.0677 | -0.0742 | -0.0562 | -0.0629 | 0.0155 | -0.0135 | -0.0174 | -0.0473 | 0.0045 | -0.0004 | 0.0332 | -0.0484 | -0.072 | -0.0834 | -0.0527 | -0.0278 | -0.0368 | -0.0149 | -0.0997 |
| CN(CCO)CC[C@H](CSc1ccccc1)Nc1ccc(S(=O)(=O)NC(=O)c2ccc(N3CCC([C@@H](O)c4ccccc4-c4ccc(Cl)cc4)CC3)cc2)cc1S(=O)(=O)C(F)(F)F [AZD4320] + C[C@@H](Nc1cc(F)cc(F)c1)c1cc(C(=O)N(C)C)cc2c(=O)cc(N3CCOCC3)oc12 [AZD8186] (first compound max 1 µM, 7x7, partner max 3 µM) | 0.0472 | 0.126 | 0.0019 | -0.0417 | -0.117 | 0.0508 | 0.0747 | 0.0489 | -0.0032 | -0.0224 | 0.0137 | 0.0548 | 0.0113 | 0.038 | 0.0586 | 0.0472 | -0.0055 | -0.0094 | -0.0239 | -0.0401 |
| CC1(C)CCC(CN2CCN(c3ccc(C(=O)NS(=O)(=O)c4ccc(NCC5CCOCC5)c([N+](=O)[O-])c4)c(Oc4cnc5[nH]ccc5c4)c3)CC2)=C(c2ccc(Cl)cc2)C1 [Venetoclax] + C[C@@H]1COCCN1C2=NC(=NC(=C2)C3(CC3)[S@](=N)(=O)C)C4=C5C=CNC5=NC=C4 [AZD6738] (first compound max 1 µM, 7x7, partner max 10 µM) | -0.0196 | -0.0454 | -0.0474 | -0.124 | -0.0758 | 0.0104 | -0.0293 | -0.0433 | -0.0273 | -0.0647 | -0.0107 | -0.0021 | -0.0111 | -0.0201 | -0.0511 | -0.0487 | -0.0979 | -0.0433 | -0.06 | 0.0275 |
| C[C@@H](c1ccc2nccn2c1)n1nnc2ncc(-c3cnn(C)c3)nc21 [Savolitinib] + Cc1c2c(nn1C)CSCc1cc(n(C)n1)CSc1cc(c3ccccc3c1)OCCCc1c(C(=O)O)n(C)c3c-2c(Cl)ccc13 [AZD5991] (first compound max 1 µM, 7x7, partner max 1 µM) | -0.0767 | -0.0559 | -0.0199 | -0.0558 | -0.0508 | 0.0026 | -0.0113 | -0.0638 | -0.0197 | -0.0375 | -0.0393 | -0.0204 | -0.0733 | -0.0526 | -0.0135 | -0.0347 | -0.0428 | -0.0281 | -0.0547 | -0.0493 |
| C[C@@H](c1ccc2nccn2c1)n1nnc2ncc(-c3cnn(C)c3)nc21 [Savolitinib] + CC1(C)CCC(CN2CCN(c3ccc(C(=O)NS(=O)(=O)c4ccc(NCC5CCOCC5)c([N+](=O)[O-])c4)c(Oc4cnc5[nH]ccc5c4)c3)CC2)=C(c2ccc(Cl)cc2)C1 [Venetoclax] (first compound max 1 µM, 7x7, partner max 1 µM) | -0.0816 | -0.0848 | -0.0432 | -0.0363 | -0.0516 | -0.0158 | -0.067 | -0.0536 | -0.0367 | -0.0158 | -0.0371 | -0.0021 | -0.0719 | -0.0912 | -0.0427 | -0.0699 | -0.0686 | -0.0328 | -0.0793 | 0.0064 |
| NC1(C(=O)N[C@@H](CCO)c2ccc(Cl)cc2)CCN(c2ncnc3[nH]ccc23)CC1 [Capivasertib] + Cn1cnc2c(F)c(Nc3ccc(Br)cc3Cl)c(C(=O)NOCCO)cc21 [Selumetinib] (first compound max 10 µM, 7x7, partner max 10 µM) | -0.0445 | -0.0158 | -0.0415 | -0.0085 | -0.0098 | 0.0034 | -0.0219 | 0.0035 | 0.0387 | 0.0644 | 0.0081 | 0.0439 | -0.0383 | -0.0559 | 0.0036 | -0.0316 | 0.0676 | 0.145 | 0.0153 | 0.0675 |
| CC(=O)c1c(C)c2cnc(Nc3ccc(N4CCNCC4)cn3)nc2n(C2CCCC2)c1=O [Palbociclib] + CC1(C)CCC(CN2CCN(c3ccc(C(=O)NS(=O)(=O)c4ccc(NCC5CCOCC5)c([N+](=O)[O-])c4)c(Oc4cnc5[nH]ccc5c4)c3)CC2)=C(c2ccc(Cl)cc2)C1 [Venetoclax] (first compound max 10 µM, 7x7, partner max 1 µM) | 0.0004 | -0.0375 | 0.0005 | -0.093 | -0.0575 | 0.0953 | 0.0221 | -0.0288 | -0.0901 | 0.0627 | -0.0276 | -0.0084 | -0.0574 | -0.021 | -0.0352 | -0.054 | -0.0225 | -0.051 | -0.0521 | -0.0128 |
| CS(=O)(=O)CCNCc1ccc(-c2ccc3ncnc(Nc4ccc(OCc5cccc(F)c5)c(Cl)c4)c3c2)o1 [Lapatinib] + C[C@@H](Oc1cc(-c2cnn(C3CCNCC3)c2)cnc1N)c1c(Cl)ccc(F)c1Cl [Crizotinib] (first compound max 10 µM, 7x7, partner max 10 µM) | -0.021 | -0.0421 | -0.0655 | -0.0359 | -0.122 | -0.0113 | -0.0533 | 0.0188 | -0.027 | -0.0827 | -0.0465 | 0.0033 | -0.0342 | -0.0563 | -0.0146 | -0.0302 | -0.0355 | 0.0015 | -0.0396 | 0.0028 |
| COc1nnc2ccc(N3CCC(c4ccc(OCCN5CCN(C)C(=O)[C@H]5C)cc4)CC3)nn12 [AZD5153] + C=CCn1c(=O)c2cnc(Nc3ccc(N4CCN(C)CC4)cc3)nc2n1-c1cccc(C(C)(C)O)n1 [AZD1775] (first compound max 1 µM, partner max 1 µM) | -0.0014 | 0.0293 | -0.0223 | -0.0563 | -0.0375 | -0.0213 | -0.0163 | -0.106 | -0.0699 | -0.123 | -0.0224 | -0.0437 | -0.0857 | -0.0521 | -0.0856 | -0.119 | -0.049 | 0.0175 | 0.0195 | -0.0167 |
